Assays:
[1] = tested on: winter barley; test: Test E winter barley; format: in vivo, Hordeum vulgare; conditions: Preemergence
[2] = tested on: wild oat; test: Test B pre/postemergence wild oat; format: in vivo, Avena fatua
Procedure, shortened: (§1)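 Response is a visual 0-to-10 score relative to untreated plants, where 0 means no effect and 10 means complete control, taken twelve to sixteen days after application. Treatments went onto soil at planting and onto foliage of 1- to 4-leaf plants, using a surfactant-containing non-phytotoxic solvent.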

[3] = tested on: winter wheat; test: Test E winter wheat; format: in vivo, Triticum aestivum; conditions: Preemergence
[4] = tested on: Italian ryegrass; test: Test E Italian ryegrass; format: in vivo, Lolium multiflorum; conditions: Preemergence
[5] = tested on: soybean; test: Test B pre/postemergence soybean; format: in vivo, Glycine max
Procedure, shortened: as §1

[6] = tested on: wheat; test: Test B pre/postemergence wheat; format: in vivo, Triticum aestivum
Procedure, shortened: as §1

[7] = tested on: wild oat; test: Test E wild oat; format: in vivo, Avena fatua; conditions: Preemergence
[8] = tested on: smallflower flatsedge; test: Test B flood test smallflower flatsedge; format: in vivo, Cyperus difformis
Procedure, shortened: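 Each value is a visual injury score relative to controls, with 10 meaning complete control and 0 no effect. Evaluation took place twelve to sixteen days after the 2-leaf-stage plants were treated and kept in the greenhouse.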

[9] = tested on: blackgrass; test: Test E blackgrass; format: in vivo, Alopecurus myosuroides; conditions: Preemergence
[10] = tested on: winter wheat; test: Test E winter wheat; format: in vivo, Triticum aestivum; conditions: Postemergence
Procedure, shortened: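 Plants were grown under normal greenhouse practice; for postemergence, in sandy loam soil mixed 60:40 with potting mix, treated at the 1- to 4-leaf stage. The compound was in a non-phytotoxic solvent carrying a surfactant. After roughly 21 to 28 days plants were scored visually against untreated plants.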

[11] = tested on: green foxtail; test: Test E green foxtail; format: in vivo, Setaria viridis; conditions: Preemergence
[12] = tested on: crabgrass; test: Test B pre/postemergence crabgrass; format: in vivo, Digitaria sanguinalis
Procedure, shortened: as §1

[13] = Rate 125 g/ha, 0 to 100 scale (0 no effect, 100 complete control)
[14] = Rate 500 g/ha, 0 to 100 scale (0 no effect, 100 complete control)
[15] = Preemergence, Rate 62 g/ha, scale of 0 to 10 where 0 is no effect and 10 is complete control
[16] = Preemergence, Rate 250 g/ha, scale of 0 to 10 where 0 is no effect and 10 is complete control
[17] = Preemergence, Rate 500 g/ha, scale of 0 to 10 where 0 is no effect and 10 is complete control
[18] = Rate 62 g/ha, Postemergence, scale 0 to 10 (0 no effect, 10 complete control)
[19] = Rate 125 g/ha, Postemergence, scale of 0 to 10 where 0 is no effect and 10 is complete control
[20] = Rate 250 g/ha, Postemergence, scale of 0 to 10 where 0 is no effect and 10 is complete control
[21] = Rate 125 g/ha, Pre-emergence, flood test species, scale 0 to 10 where 0 is no effect and 10 is complete control
[22] = Rate 250 g/ha, Pre-emergence, flood-test species, scale 0 to 10, 0 is no effect, 10 is complete control
[23] = Rate 500 g/ha, Pre-emergence, flood test species, scale 0 to 10 (0 no effect, 10 complete control)
[24] = Rate 500 g/ha, 0 to 100 scale, 0 is no effect, 100 is complete control
[25] = Rate 500 g/ha, 0 to 100 scale where 0 is no effect and 100 is complete control
[26] = Rate 1000 g/ha, 0 to 100 scale, 0 no effect, 100 complete control
[27] = Rate 62 g/ha, Postemergence, scale of 0 to 10 where 0 is no effect and 10 is complete control
[28] = Rate 125 g/ha, Postemergence, scale 0 to 10
[29] = Rate 125 g/ha, Preemergence, scale of 0 to 10 where 0 is no effect and 10 is complete control
[30] = Rate 500 g/ha, Postemergence, scale 0 to 10, 0 no effect, 10 complete control

COC(Cn1c(=O)on(C(=O)N(c2ccc(F)cc2)C(C)C)c1=O)OC [Compound 317]
Plant response rating, Barley (winter) [1, 13]: 40 | Plant response rating, Barley (winter) ([1]; Rate 250 g/ha, 0 to 100 scale, 0 no effect, 100 complete control): 50 | Plant response rating, Barley (winter) [1, 14]: 70 | Wild oats plant response rating [2, 15]: 5 | Wild oats plant response rating (0 to 10 scale) ([2]; Preemergence, Rate 125 g/ha): 8 | Wild oats plant response rating [2, 16]: 8 | Wild oats plant response rating [2, 17]: 10 | Wild oats plant response rating [2, 18]: 0 | Wild oats plant response rating [2, 19]: 0 | Plant response rating, Wild oats [2, 20]: 0 | Plant response rating, Wheat (winter) [3, 13]: 50 | Plant response rating, Wheat (winter) ([3]; Rate 250 g/ha, 0 to 100 scale): 50 | Plant response rating, Wheat (winter) [3, 14]: 60 | Plant response rating, I. Ryegrass [4, 13]: 60 | Plant response rating, I. Ryegrass ([4]; Rate 250 g/ha, 0 to 100 scale): 85 | Plant response rating, I. Ryegrass [4, 14]: 95 | Soybean plant response rating [5, 15]: 0 | Soybean plant response rating (0 to 10 scale) ([5]; Preemergence, Rate 125 g/ha): 0 | Soybean plant response rating [5, 16]: 0 | Soybean plant response rating [5, 17]: 4 | Soybean plant response rating [5, 18]: 3 | Soybean plant response rating [5, 19]: 4 | Plant response rating, Soybean [5, 20]: 6 | Wheat plant response rating [6, 15]: 1 | Wheat plant response rating (0 to 10 scale) ([6]; Preemergence, Rate 125 g/ha): 2 | Wheat plant response rating [6, 16]: 7 | Wheat plant response rating [6, 17]: 8 | Wheat plant response rating [6, 18]: 0 | Wheat plant response rating [6, 19]: 1 | Plant response rating, Wheat [6, 20]: 5 | Plant response rating, Wild oat [7, 13]: 60 | Plant response rating, Wild oat ([7]; Rate 250 g/ha, 0 to 100 scale): 60 | Plant response rating, Wild oat [7, 14]: 70 | S. Flatsedge plant response rating ([8]; Pre-emergence, Rate 1000 g/ha, scale 0 to 10 (0 no effect, 10 complete control)): 0 | S. Flatsedge plant response rating [8, 21]: 0 | S. Flatsedge plant response rating [8, 22]: 0 | S. Flatsedge plant response rating [8, 23]: 0 | Plant response rating, Blackgrass [9, 13]: 50 | Plant response rating, Blackgrass ([9]; Rate 250 g/ha, 0 to 100 scale): 100 | Plant response rating, Blackgrass [9, 14]: 60 | Plant response rating, Wheat (winter) ([10]; Rate 125 g/ha, 0 to 100 scale, 0 is no effect, 100 is complete control): 70 | Plant response rating, Wheat (winter) ([10]; Rate 250 g/ha, 0 to 100 scale, 0 is no effect, 100 is complete control): 95 | Plant response rating, Wheat (winter) [10, 24]: 95 | Plant response rating, Green foxtail [11, 13]: 100 | Plant response rating, Green foxtail ([11]; Rate 250 g/ha, 0 to 100 scale): 100 | Plant response rating, Green foxtail [11, 14]: 100 | Crabgrass plant response rating [12, 15]: 6 | Crabgrass plant response rating (0 to 10 scale) ([12]; Preemergence, Rate 125 g/ha): 7 | Crabgrass plant response rating [12, 16]: 8 | Crabgrass plant response rating [12, 17]: 8 | Crabgrass plant response rating [12, 18]: 2 | Crabgrass plant response rating [12, 19]: 5 | Plant response rating, Crabgrass [12, 20]: 8

Cc1nc(C)c(Cn2c(=O)on(C(=O)N(c3ccc(F)cc3)C(C)C)c2=O)s1 [Compound 232]
Barley (winter) plant response rating (0 to 100 scale) ([1]; Rate 250 g/ha): 20 | Plant response rating, Barley (winter) [1, 25]: 20 | Plant response rating, Barley (winter) [1, 26]: 55 | Wild oats plant response rating [2, 15]: 0 | Wild oats plant response rating [2, 16]: 3 | Plant response rating, Wild oats [2, 17]: 8 | Wild oats plant response rating [2, 27]: 0 | Wild oats plant response rating [2, 28]: 0 | Wild oats plant response rating [2, 29]: 0 | Plant response rating (0 to 10; 0 is no effect, 10 is complete control), Wild oats ([2]; Rate 250 g/ha, Postemergence): 0 | Wild oats plant response rating [2, 30]: 0 | Wheat (winter) plant response rating (0 to 100 scale) ([3]; Rate 250 g/ha): 30 | Plant response rating, Wheat (winter) [3, 25]: 30 | Plant response rating, Wheat (winter) [3, 26]: 50 | I. Ryegrass plant response rating (0 to 100 scale) ([4]; Rate 250 g/ha): 40 | Plant response rating, I. Ryegrass [4, 25]: 50 | Plant response rating, I. Ryegrass [4, 26]: 55 | Soybean plant response rating [5, 15]: 0 | Soybean plant response rating [5, 16]: 0 | Plant response rating, Soybean [5, 17]: 0 | Soybean plant response rating [5, 27]: 3 | Soybean plant response rating [5, 28]: 3 | Soybean plant response rating [5, 29]: 0 | Plant response rating (0 to 10; 0 is no effect, 10 is complete control), Soybean ([5]; Rate 250 g/ha, Postemergence): 4 | Soybean plant response rating [5, 30]: 4 | Wheat plant response rating [6, 15]: 0 | Wheat plant response rating [6, 16]: 0 | Plant response rating, Wheat [6, 17]: 0 | Wheat plant response rating [6, 27]: 0 | Wheat plant response rating [6, 28]: 0 | Wheat plant response rating [6, 29]: 0 | Plant response rating (0 to 10; 0 is no effect, 10 is complete control), Wheat ([6]; Rate 250 g/ha, Postemergence): 0 | Wheat plant response rating [6, 30]: 0 | Wild oat plant response rating (0 to 100 scale) ([7]; Rate 250 g/ha): 55 | Plant response rating, Wild oat [7, 25]: 50 | Plant response rating, Wild oat [7, 26]: 60 | S. Flatsedge plant response rating ([8]; Rate 62 g/ha, headed Pre-emergence (flood test species), scale 0 to 10 (0 no effect, 10 complete control)): 0 | S. Flatsedge plant response rating [8, 21]: 0 | S. Flatsedge plant response rating [8, 22]: 0 | S. Flatsedge plant response rating [8, 23]: 0 | Blackgrass plant response rating (0 to 100 scale) ([9]; Rate 250 g/ha): 30 | Plant response rating, Blackgrass [9, 25]: 50 | Plant response rating, Blackgrass [9, 26]: 50 | Plant response rating, Wheat (winter) ([10]; Rate 1000 g/ha, 0 to 100 scale where 0 is no effect and 100 is complete control): 60 | Wheat (winter) plant response rating ([10]; Rate 250 g/ha, 0 to 100 scale where 0 is no effect and 100 is complete control): 40 | Plant response rating, Wheat (winter) [10, 24]: 50 | Green foxtail plant response rating (0 to 100 scale) ([11]; Rate 250 g/ha): 95 | Plant response rating, Green foxtail [11, 25]: 90 | Plant response rating, Green foxtail [11, 26]: 100 | Crabgrass plant response rating [12, 15]: 5 | Crabgrass plant response rating [12, 16]: 9 | Plant response rating, Crabgrass [12, 17]: 10 | Crabgrass plant response rating [12, 27]: 0 | Crabgrass plant response rating [12, 28]: 1 | Crabgrass plant response rating [12, 29]: 7 | Plant response rating (0 to 10; 0 is no effect, 10 is complete control), Crabgrass ([12]; Rate 250 g/ha, Postemergence): 1 | Crabgrass plant response rating [12, 30]: 2

— patent publication US6737383B1, “Herbicidal oxadiazolidines” (priority 1999, dated 2004)
